Assay results from paper PMC8776995 (Frontiers in Chemistry, 2022).
“And” between values parts separate entries of the source, which are not always exact repeats. Identical values can stand only once. Like-named read-outs stand apart in the source and are kept apart here.

What was measured:
A549 cells = assay: CCK-8 antiproliferation assay, A549; conditions: for Inhibitory efficacy: A549 cells
Procedure: The compounds were dissolved in DMSO to make a 20 μM stock solution and diluted to the concentration of working solutions with complete growth medium before administration.
Cells were seeded in 96-well plates: 3,000–5,000 cells/well in 100 ul. One day after seeding, the test compounds at concentration between 1.0 and 16.0 μ M or 0.1% DMSO (as control) were added to cells in triplicate. 48 h later, CCK-8 was added and incubated the plate for 1–4 h in the incubator. The absorbance at 450 nm were measured using a microplate reader (Bio-Tek).

[1] = tested on: EGFR phosphorylation (Tyr1068) in PC-9 cells; assay: Western blot, p-EGFR/EGFR in PC-9; conditions: for p-EGFR/EGFR: band density ratio; for p-EGFR/EGFR relative to DMSO: ratio normalised to DMSO = 1
Procedure: (§1) We also performed western blot analysis to evaluate the impact of e4 and e12 on EGFR signaling in PC-9 and H460 cells.
(§2) H460 cells were seeded in six-well plates with serum-free medium overnight, and then treated complete medium containing 0.1% DMSO, various concentrations (0.1, 1 and 10 μM) of either compound e4 or e12 for 2 h, respectively. […] Then the H460 cells were treated with complete medium containing EGF (10 ng/ml) for 5 min. Then the cells were harvested and washed with PBS, centrifuged, resuspended in 100–200 μl of RIPA lysis buffer containing Protease and Phosphatase Inhibitor Cocktail (1X), and then centrifuged for 5 min at 12,000 rpm at 4°C. The supernatant was used for protein analysis. […] Then the membrane was washed 5 min (X3) and incubated at 1:3,000 dilution of anti-rabbit secondary antibodies or 1:1,000 dilution of anti-mouse secondary antibodies for 1 h at RT. After washing with TBST 5 min (X3), protein bands were developed by chemiluminescence. The protein levels were quantified by the gray values of the bands in the resulting images by ImageJ, and the control group was used as the standard. […] The PC-9 cells were harvested and analyzed as above.

PC-9 cells = assay: Flow cytometry detection for cell cycle, PC-9; type: cell-based, human; conditions: for G0/G1 / G2/M / S: single repeats (Repeat 1-3)
Procedure: To investigate the effects of compounds e4 and e12 on various phases of the cell cycle, PC-9 cells were treated with compound e4 or e12 of various concentrations for 24 h, and H460 cells were treated with compound e4 or e12 of various concentrations for 12 h.
PC-9 or H460 (2 × 10^5–3 × 10^5/well) cells were seeded in six-well plates for 24 h, and then treated with 0.1% DMSO (as control), various concentrations of either compound e4 or e12 for 24 h (PC-9) or 12 h (H460), respectively. The treated cells were harvested, washed with PBS, and then stained using the cell-cycle staining kit according to the manufacturer’s manual. The distribution of cell-cycle phases with different DNA contents was determined by flow cytometry (BD LSRFortessa™ Flow Cytometer) and analyzed using ModFit LT software.

[2] = tested on: AKT phosphorylation (S473) in H460 cells; assay: Western blot, p-AKT/AKT in H460; conditions: for p-AKT/AKT: band density ratio; for p-AKT/AKT relative to DMSO: ratio normalised to DMSO
Procedure: as §1, §2

wild-type EGFR = wild-type EGFR (Homo sapiens, UniProt P00533); assay: EGFR kinase assay (ELISA); conditions: for A450: raw ELISA absorbance
H1975 cells = assay: CCK-8 antiproliferation assay, H1975; conditions: given as fraction, Repeat 1-3; for Inhibitory efficacy: H1975 cells
[3] = tested on: AKT phosphorylation (S473) in PC-9 cells; assay: Western blot, p-AKT/AKT in PC-9; conditions: for p-AKT/AKT: band density ratio; for p-AKT/AKT relative to DMSO: ratio normalised to DMSO = 1
Procedure: as §1, §2

Chain of wild-type EGFR (P00533 25-1210): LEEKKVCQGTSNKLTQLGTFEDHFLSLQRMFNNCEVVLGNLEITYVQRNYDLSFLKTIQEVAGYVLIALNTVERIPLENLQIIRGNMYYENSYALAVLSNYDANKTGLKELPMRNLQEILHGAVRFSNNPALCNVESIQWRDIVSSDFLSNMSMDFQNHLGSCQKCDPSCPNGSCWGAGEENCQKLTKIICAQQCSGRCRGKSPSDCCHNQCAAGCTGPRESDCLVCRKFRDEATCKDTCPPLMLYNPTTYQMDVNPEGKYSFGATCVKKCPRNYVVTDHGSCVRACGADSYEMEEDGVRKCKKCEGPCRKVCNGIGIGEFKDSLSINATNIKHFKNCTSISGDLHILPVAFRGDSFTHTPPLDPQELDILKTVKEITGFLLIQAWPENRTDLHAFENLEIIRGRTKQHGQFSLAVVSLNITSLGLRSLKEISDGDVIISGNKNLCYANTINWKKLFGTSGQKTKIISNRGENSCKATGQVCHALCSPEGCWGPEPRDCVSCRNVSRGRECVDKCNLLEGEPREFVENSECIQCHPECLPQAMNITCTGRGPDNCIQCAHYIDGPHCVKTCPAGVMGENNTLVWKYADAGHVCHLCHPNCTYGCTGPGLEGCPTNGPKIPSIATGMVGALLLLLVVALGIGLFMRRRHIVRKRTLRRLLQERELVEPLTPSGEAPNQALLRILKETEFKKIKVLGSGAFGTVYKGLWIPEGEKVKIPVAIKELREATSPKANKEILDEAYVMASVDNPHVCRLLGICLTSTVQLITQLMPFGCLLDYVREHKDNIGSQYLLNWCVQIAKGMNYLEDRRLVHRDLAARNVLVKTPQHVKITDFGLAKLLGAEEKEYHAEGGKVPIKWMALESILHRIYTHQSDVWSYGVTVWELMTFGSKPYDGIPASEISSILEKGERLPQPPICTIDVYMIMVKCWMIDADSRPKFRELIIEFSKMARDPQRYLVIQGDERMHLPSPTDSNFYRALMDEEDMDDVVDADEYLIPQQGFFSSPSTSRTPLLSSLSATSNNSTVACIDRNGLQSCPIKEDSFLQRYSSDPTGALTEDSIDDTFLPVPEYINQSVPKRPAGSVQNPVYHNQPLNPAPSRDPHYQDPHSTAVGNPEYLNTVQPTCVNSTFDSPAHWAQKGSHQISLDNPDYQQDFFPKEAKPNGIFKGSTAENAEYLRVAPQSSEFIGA

IC50 (A549 cells; Homo sapiens, A549, 48 h, read-out: IC50 (μM) A549, CCK-8, 48 h, average ± SD of three independent experiments): < 10 µM
IC50 (A549 cells; read-out: IC50 (μM) A549, CCK-8, 48 h, average ± SD of three independent experiments): 5.8 ± 0.78 µM
inhibition at 100 fM (wild-type EGFR; concentration 0.0001 nM (reference for normalisation), one value per replicate column): 0%
Inhibition (wild-type EGFR; concentration 0.03 nM, one value per replicate column, 3e-05 µM): 0.3205 and 0.9868
inhibition at 0.0003 µM (wild-type EGFR; concentration 0.3 nM, one value per replicate column): 8.65%
Inhibition (wild-type EGFR; concentration 0.3 nM, one value per replicate column, 0.0003 µM): 6.25
inhibition at 0.003 µM (wild-type EGFR; concentration 3 nM, one value per replicate column): 8.97%
Inhibition (wild-type EGFR; concentration 3 nM, one value per replicate column, 0.003 µM): 8.553
inhibition at 0.03 µM (wild-type EGFR; concentration 30 nM, one value per replicate column): 9.62%
Inhibition (wild-type EGFR; concentration 30 nM, one value per replicate column, 0.03 µM): 10.8553
inhibition at 0.3 µM (wild-type EGFR; concentration 300 nM, one value per replicate column): 10.3%
Inhibition (wild-type EGFR; concentration 300 nM, one value per replicate column, 0.3 µM): 11.1842
inhibition at 3 µM (wild-type EGFR; concentration 3000 nM, one value per replicate column): 13.8%
Inhibition (wild-type EGFR; concentration 3000 nM, one value per replicate column, 3 µM): 18.75
inhibition at 30 µM (wild-type EGFR; concentration 30000 nM, one value per replicate column): 70.2%
Inhibition (wild-type EGFR; concentration 30000 nM, one value per replicate column, 30 µM): 70.7237
A450 (wild-type EGFR; concentration 0.0001 nM): 0.554 and 0.551
A450 (wild-type EGFR; concentration 0.03 nM): 0.553 and 0.548
A450 (wild-type EGFR; concentration 0.3 nM): 0.527 and 0.532
A450 (wild-type EGFR; concentration 3 nM): 0.526 and 0.525
A450 (wild-type EGFR; concentration 30 nM): 0.524 and 0.518
A450 (wild-type EGFR; concentration 300 nM): 0.522 and 0.517
A450 (wild-type EGFR; concentration 3000 nM): 0.511 and 0.494
A450 (wild-type EGFR; concentration 30000 nM): 0.335 and 0.336
IC50 (wild-type EGFR; read-out: IC50 (μM) EGFR, ELISA, 3 μmol/L ATP): 13 µM
SMILES: COCCOc1cc2ncnc(Nc3cccc(-c4cn(Cc5cc(Br)cc(Br)c5)nn4)c3)c2cc1OCCOC [e4, [6,7-Bis-(2-methoxy-ethoxy)-quinazolin-4-yl]-{3-[1-(3,5-dibromo-benzyl)-1H-[1,2,3]triazol-4-yl]-phenyl}-amine]
Inhibitory efficacy (A549 cells; 4uM, given as fraction, Repeat 1-3): 0.2144 and 0.2227
Inhibitory efficacy (A549 cells; 8uM, given as fraction, Repeat 1-3): 0.7075 and 0.6166
Inhibitory efficacy (A549 cells; 16uM, given as fraction, Repeat 1-3): 0.9444 and 0.9355
inhibition at 4 µM (A549 cells; Homo sapiens, A549, read-out: Inhibitory efficacy, A549 cells, 4uM, given as fraction, Repeat 1-3): 35.6%
inhibition at 8 µM (A549 cells; Homo sapiens, A549, read-out: Inhibitory efficacy, A549 cells, 8uM, given as fraction, Repeat 1-3): 75.6%
inhibition at 16 µM (A549 cells; Homo sapiens, A549, read-out: Inhibitory efficacy, A549 cells, 16uM, given as fraction, Repeat 1-3): 94.8%
p-EGFR/EGFR ([1]; PC-9, 0.1 uM): 0.3318
p-EGFR/EGFR relative to DMSO ([1]; PC-9, 0.1 uM): 0.2965
p-EGFR/EGFR ([1]; PC-9, 1 uM): 0.2248
p-EGFR/EGFR relative to DMSO ([1]; PC-9, 1 uM): 0.2009
p-EGFR/EGFR ([1]; PC-9, 10 uM): 0.5115
p-EGFR/EGFR relative to DMSO ([1]; PC-9, 10 uM): 0.4571
phosphorylation of EGFR (western blot) ([1]; PC-9, especially at 10 μM): suppressed
G0/G1 (PC-9 cells; PC-9, 4uM): 48.12 and 48.79 and 52.62
G2/M (PC-9 cells; PC-9, 4uM): 15.27 and 15.42 and 15.56
S (PC-9 cells; PC-9, 4uM): 36.61 and 35.79 and 31.83
G0/G1 (PC-9 cells; PC-9, 8uM): 53.18 and 53.63 and 55.05
G2/M (PC-9 cells; PC-9, 8uM): 16.92 and 17.15 and 16.88
S (PC-9 cells; PC-9, 8uM): 29.9 and 29.22 and 28.08
G0/G1 (PC-9 cells; PC-9, 12uM): 60.53 and 62.02 and 63.46
G2/M (PC-9 cells; PC-9, 12uM): 23.33 and 22.27 and 17.86
S (PC-9 cells; PC-9, 12uM): 16.14 and 15.71 and 18.68
percentage of cells in the G0/G1 phase (PC-9 cells; PC-9, various concentrations, 24 h): induced higher percentages
p-AKT/AKT ([2]; H460, 0.1 uM): 1.245
p-AKT/AKT relative to DMSO ([2]; H460, 0.1 uM): 1.252
p-AKT/AKT ([2]; H460, 1 uM): 0.733
p-AKT/AKT relative to DMSO ([2]; H460, 1 uM): 0.7369
p-AKT/AKT ([2]; H460, 10 uM): 1.039
p-AKT/AKT relative to DMSO ([2]; H460, 10 uM): 1.044
phosphorylation of AKT (western blot) ([2]; H460, especially at 10 μM): suppressed
Inhibitory efficacy (H1975 cells; 2uM): 0.363 and 0.4168
Inhibitory efficacy (H1975 cells; 4uM): 0.3676 and 0.4565
Inhibitory efficacy (H1975 cells; 8uM): 0.9443
Inhibitory efficacy (H1975 cells; 16uM): 0.9548 and 0.9653
inhibition at 2 µM (H1975 cells; Homo sapiens, NCI-H1975, read-out: Inhibitory efficacy, H1975 cells, 2uM): 30.2%
inhibition at 4 µM (H1975 cells; Homo sapiens, NCI-H1975, read-out: Inhibitory efficacy, H1975 cells, 4uM): 39.3%
inhibition at 8 µM (H1975 cells; Homo sapiens, NCI-H1975, read-out: Inhibitory efficacy, H1975 cells, 8uM): 92.2%
inhibition at 16 µM (H1975 cells; Homo sapiens, NCI-H1975, read-out: Inhibitory efficacy, H1975 cells, 16uM): 96.1%
p-AKT/AKT ([3]; PC-9, 0.1 uM): 0.8512
p-AKT/AKT relative to DMSO ([3]; PC-9, 0.1 uM): 0.8172
p-AKT/AKT ([3]; PC-9, 1 uM): 0.7155
p-AKT/AKT relative to DMSO ([3]; PC-9, 1 uM): 0.6869
p-AKT/AKT ([3]; PC-9, 10 uM): 0.5338
p-AKT/AKT relative to DMSO ([3]; PC-9, 10 uM): 0.5125
phosphorylation of AKT (western blot) ([3]; PC-9, especially at 10 μM): suppressed
